According to patent publication US9434743B2, “Indazole derivatives” (TAKEDA PHARMACEUTICAL COMPANY LIMITED, priority 2012, dated 2016):

Experiments:
human MetAP2 enzyme [1] = biological target: T1, human MetAP2 enzyme (Homo sapiens, UniProt P50579); test: MetAP2 enzyme assay, enzyme complexed with manganese ions; conditions: MetAP2 Mn pIC50, MetAP2 enzyme complexed with manganese ions; Met-AMC substrate at Km
human MetAP2 enzyme [2] = biological target: T1, human MetAP2 enzyme; test: MetAP2 enzyme assay, enzyme complexed with cobalt ions; conditions: MetAP2 Co pIC50, MetAP2 enzyme complexed with cobalt ions; Met-AMC substrate at Km
Experimental: DNA encoding the full-length sequence of human MetAP2 enzyme is amplified by PCR and cloned into a pFastBac expression vector (Invitrogen). Recombinant baculovirus incorporating the MetAP2 construct is generated by transposition using the Bac-to-Bac system (Invitrogen). The expression of recombinant protein is carried out by infection of Spodoptera frugiperda Sf9 cells (Invitrogen) in 5 L Wave Bioreactors (Wave Biotech). Recombinant protein is isolated from cellular extracts by binding to an SP Hitrap Fast Flow or SP Sepharose (Sigma) column, and the protein is eluted using a NaCl gradient. Partially purified extracts of MetAP2 are further purified by an AKTA FPLC over a Superdex-200 column (GE). The purity of MetAP2 protein is determined on denaturing SDS-PAGE gel.
The results for each well are expressed as percent inhibition and calculated using the equation:

T1 sequence (P50579 whole entry): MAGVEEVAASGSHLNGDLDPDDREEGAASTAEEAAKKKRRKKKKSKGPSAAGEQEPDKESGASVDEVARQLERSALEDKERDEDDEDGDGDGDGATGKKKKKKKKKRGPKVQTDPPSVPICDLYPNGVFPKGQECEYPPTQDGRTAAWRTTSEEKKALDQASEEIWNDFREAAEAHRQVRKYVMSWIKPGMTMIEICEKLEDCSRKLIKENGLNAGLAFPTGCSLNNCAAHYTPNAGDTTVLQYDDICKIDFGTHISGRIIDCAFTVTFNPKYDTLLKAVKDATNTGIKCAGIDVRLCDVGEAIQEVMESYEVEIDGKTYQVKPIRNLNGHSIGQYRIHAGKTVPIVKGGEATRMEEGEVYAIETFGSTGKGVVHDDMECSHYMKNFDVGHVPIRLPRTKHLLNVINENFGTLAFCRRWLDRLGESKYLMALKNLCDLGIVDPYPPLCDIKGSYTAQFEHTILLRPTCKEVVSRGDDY

SMILES | IC50 (human MetAP2 enzyme [1]) | IC50 (human MetAP2 enzyme [2])
CN1CCN(C(=O)c2cncc(-c3cc(C(F)(F)F)cc4[nH]ncc34)c2)CC1 [Example 287, (4-methylpiperazin-1-yl)(5-(6-(trifluoromethyl)-1H-indazol-4-yl)pyridin-3-yl)methanone] | 3.98 nM | 63.1 nM
O=C1CNc2ncc(-c3cc(C(F)(F)F)cc4[nH]ncc34)cc2N1 [Example 244, 7-(6-(trifluoromethyl)-1H-indazol-4-yl)-3,4-dihydropyrido[2,3-b]pyrazin-2(1H)-one] | 5.01 nM | 31.6 nM
NC(=O)c1cccc(-c2cc(C(F)(F)F)cc3[nH]ncc23)c1 [Example 18, 3-(6-(trifluoromethyl)-1H-indazol-4-yl)benzamide] | 3.16 nM | 25.1 nM
FC(F)(F)c1cc(-c2cnc(-n3ccnc3)nc2)c2cn[nH]c2c1 [Example 217, 4-(2-(1H-imidazol-1-yl)pyrimidin-5-yl)-6-(trifluoromethyl)-1H-indazole] | 10 nM | 158 nM
NCC(O)c1ccccc1-c1cc(C(F)(F)F)cc2[nH]ncc12 (stereo not drawn) [Example 205, 2-amino-1-(2-(6-(trifluoromethyl)-1H-indazol-4-yl)phenyl)ethanol] | 12.6 nM | 1260 nM
NC(=O)c1cc(-c2cc(C(F)(F)F)cc3[nH]ncc23)cnc1N [Example 233, 2-amino-5-(6-(trifluoromethyl)-1H-indazol-4-yl)nicotinamide] | 7.94 nM | 100 nM
Cc1nc(-n2cnnc2)ccc1-c1cc(C(F)(F)F)cc2[nH]ncc12 [Example 383, 4-(2-methyl-6-(4H-1,2,4-triazol-4-yl)pyridin-3-yl)-6-(trifluoromethyl)-1H-indazole] | 5.01 nM | 20 nM
COc1ncc(-c2cc(C(F)(F)F)cc3[nH]ncc23)cc1C(=O)N1CCN(C)CC1 [Example 288, (2-methoxy-5-(6-(trifluoromethyl)-1H-indazol-4-yl)pyridin-3-yl)(4-methylpiperazin-1-yl)methanone] | 5.01 nM | 31.6 nM
Cc1nc(C)c(-c2cc(C(F)(F)F)cc3[nH]ncc23)s1 [Example 40, 2,4-dimethyl-5-(6-(trifluoromethyl)-1H-indazol-4-yl)thiazole] | 10 nM | 39.8 nM
CN1C(=O)Cc2cc(-c3cc(C(F)(F)F)cc4[nH]ncc34)ccc21 [Example 234, 1-methyl-5-(6-(trifluoromethyl)-1H-indazol-4-yl)indolin-2-one] | 3.98 nM | 20 nM
Cc1nn(CC(N)=O)c(C)c1-c1cc(C(F)(F)F)cc2[nH]ncc12 [Example 173, 2-(3,5-dimethyl-4-(6-(trifluoromethyl)-1H-indazol-4-yl)-1H-pyrazol-1-yl)acetamide] | 15.8 nM | 31.6 nM
N#CCNC(=O)c1c[nH]c(=O)c(-c2cc(C(F)(F)F)cc3[nH]ncc23)c1 [Example 333, N-(cyanomethyl)-6-oxo-5-(6-(trifluoromethyl)-1H-indazol-4-yl)-1,6-dihydropyridine-3-carboxamide] | 12.6 nM | 251 nM
COc1cc(C)c(-c2cc(C(F)(F)F)cc3[nH]ncc23)cn1 [Example 253, 4-(6-methoxy-4-methylpyridin-3-yl)-6-(trifluoromethyl)-1H-indazole] | 10 nM | 63.1 nM
FC(F)(F)c1cc(-c2cnc3ncccn23)c2cn[nH]c2c1 [Example 151, 3-(6-(trifluoromethyl)-1H-indazol-4-yl)imidazo[1,2-a]pyrimidine] | 6.31 nM | 200 nM
COc1cc(-c2cc(C(F)(F)F)cc3[nH]ncc23)c(OC)nn1 [Example 248, 4-(3,6-dimethoxypyridazin-4-yl)-6-(trifluoromethyl)-1H-indazole] | 5.01 nM | 63.1 nM
FC(F)(F)c1cc(-c2ccc3ccncc3c2)c2cn[nH]c2c1 [Example 26, 7-(6-(trifluoromethyl)-1H-indazol-4-yl)isoquinoline] | 12.6 nM | 63.1 nM
Fc1c(-c2cc(C(F)(F)F)cc3[nH]ncc23)ccnc1N1CCOCC1 [Example 65, 4-(3-fluoro-4-(6-(trifluoromethyl)-1H-indazol-4-yl)pyridin-2-yl)morpholine] | 12.6 nM | 15.8 nM
FC(F)(F)c1cc(-c2cnc(NC3CC3)nc2)c2cn[nH]c2c1 [Example 197, N-cyclopropyl-5-(6-(trifluoromethyl)-1H-indazol-4-yl)pyrimidin-2-amine] | 6.31 nM | 63.1 nM
Cc1ccc(S(=O)(=O)N(C)C)cc1-c1cc(C(F)(F)F)cc2[nH]ncc12 [Example 127, N,N,4-trimethyl-3-(6-(trifluoromethyl)-1H-indazol-4-yl)benzenesulfonamide] | 12.6 nM | 15.8 nM
CC(=O)Cn1nc(C)c(-c2cc(C(F)(F)F)cc3[nH]ncc23)c1C [Example 324, 1-(3,5-dimethyl-4-(6-(trifluoromethyl)-1H-indazol-4-yl)-1H-pyrazol-1-yl)propan-2-one] | 31.6 nM | 63.1 nM

SMILES | IC50 (human MetAP2 enzyme [1]) | IC50 (human MetAP2 enzyme [2])
CN1CCN(C(=O)c2cc(-c3cc(C(F)(F)F)cc4[nH]ncc34)c(=O)n(C)c2)CC1 [Example 375, 1-methyl-5-(4-methylpiperazine-1-carbonyl)-3-(6-(trifluoromethyl)-1H-indazol-4-yl)pyridin-2(1H)-one] | 10 nM | 126 nM
N#Cc1cc(F)ccc1-c1cc(C(F)(F)F)cc2[nH]ncc12 [Example 75, 5-fluoro-2-(6-(trifluoromethyl)-1H-indazol-4-yl)benzonitrile] | 7.94 nM | 158 nM
O=C1Cc2cc(-c3cc(C(F)(F)F)cc4[nH]ncc34)cnc2N1 [Example 238, 5-(6-(trifluoromethyl)-1H-indazol-4-yl)-1H-pyrrolo[2,3-b]pyridin-2(3H)-one] | 6.31 nM | 39.8 nM
COc1nc(C(=O)N2CC(O)C2)ccc1-c1cc(C(F)(F)F)cc2[nH]ncc12 [Example 395, (3-hydroxyazetidin-1-yl)(6-methoxy-5-(6-(trifluoromethyl)-1H-indazol-4-yl)pyridin-2-yl)methanone] | 6.31 nM | 31.6 nM
Cn1cc(C(=O)NCCO)cc(-c2cc(C(F)(F)F)cc3[nH]ncc23)c1=O [Example 315, N-(2-hydroxyethyl)-1-methyl-6-oxo-5-(6-(trifluoromethyl)-1H-indazol-4-yl)-1,6-dihydropyridine-3-carboxamide] | 10 nM | 316 nM
O=C(NCCO)c1ccc(-c2cc(C(F)(F)F)cc3[nH]ncc23)c(Cl)c1 [Example 331, 3-chloro-N-(2-hydroxyethyl)-4-(6-(trifluoromethyl)-1H-indazol-4-yl)benzamide] | 10 nM | 15.8 nM
O=C1Cc2cccc(-c3cc(C(F)(F)F)cc4[nH]ncc34)c2N1 [Example 136, 7-(6-(trifluoromethyl)-1H-indazol-4-yl)indolin-2-one] | 12.6 nM | 158 nM
Cc1c(-c2cc(C(F)(F)F)cc3[nH]ncc23)ccc2nnnn12 [Example 398, 5-methyl-6-(6-(trifluoromethyl)-1H-indazol-4-yl)tetrazolo[1,5-a]pyridine] | 3.98 nM | 126 nM
Cc1c(-c2cc(C(F)(F)F)cc3[nH]ncc23)cnn1C [Example 79, 4-(1,5-dimethyl-1H-pyrazol-4-yl)-6-(trifluoromethyl)-1H-indazole] | 10 nM | 25.1 nM
FC(F)(F)c1cc(-c2cnc(N3CCOCC3)nc2)c2cn[nH]c2c1 [Example 118, 4-(5-(6-(trifluoromethyl)-1H-indazol-4-yl)pyrimidin-2-yl)morpholine] | 6.31 nM | 39.8 nM
COc1ccc(-c2cc(C(F)(F)F)cc3[nH]ncc23)c(C)n1 [Example 249, 4-(6-methoxy-2-methylpyridin-3-yl)-6-(trifluoromethyl)-1H-indazole] | 12.6 nM | 79.4 nM
Cc1nn(CC#N)c(C)c1-c1cc(C(F)(F)F)cc2[nH]ncc12 [Example 170, 2-(3,5-dimethyl-4-(6-(trifluoromethyl)-1H-indazol-4-yl)-1H-pyrazol-1-yl)acetonitrile] | 20 nM | 100 nM
O=C(NC1CC1)c1ccc(-c2cc(C(F)(F)F)cc3[nH]ncc23)cc1 [Example 35, N-cyclopropyl-4-(6-(trifluoromethyl)-1H-indazol-4-yl)benzamide] | 7.94 nM | 25.1 nM
Cc1c(-c2cc(C(F)(F)F)cc3[nH]ncc23)c(N)nn1C [Example 381, 1,5-dimethyl-4-(6-(trifluoromethyl)-1H-indazol-4-yl)-1H-pyrazol-3-amine] | 6.31 nM | 39.8 nM
Cn1cc(-c2cc(C(F)(F)F)cc3[nH]ncc23)c(=O)n(CC#N)c1=O [Example 312, 2-(3-methyl-2,6-dioxo-5-(6-(trifluoromethyl)-1H-indazol-4-yl)-2,3-dihydropyrimidin-1(6H)-yl)acetonitrile] | 25.1 nM | 1000 nM
CN(C)S(=O)(=O)c1ccccc1-c1cc(C(F)(F)F)cc2[nH]ncc12 [Example 183, N,N-dimethyl-2-(6-(trifluoromethyl)-1H-indazol-4-yl)benzenesulfonamide] | 39.8 nM | 316 nM
O=C(NCCO)c1ccc(F)c(-c2cc(C(F)(F)F)cc3[nH]ncc23)c1 [Example 360, 4-fluoro-N-(2-hydroxyethyl)-3-(6-(trifluoromethyl)-1H-indazol-4-yl)benzamide] | 7.94 nM | 39.8 nM
COc1ccc(C(=O)N2CCN(C)C(=O)C2)cc1-c1cc(C(F)(F)F)cc2[nH]ncc12 [Example 325, 4-(4-methoxy-3-(6-(trifluoromethyl)-1H-indazol-4-yl)benzoyl)-1-methylpiperazin-2-one] | 25.1 nM | 63.1 nM
O=C(NCCO)c1ncc(-c2cc(C(F)(F)F)cc3[nH]ncc23)cn1 [Example 286, N-(2-hydroxyethyl)-5-(6-(trifluoromethyl)-1H-indazol-4-yl)pyrimidine-2-carboxamide] | 7.94 nM | 200 nM
